# Assay results: US8304539B2, “Fused heteroaryl modulators of glucocorticoid receptor, AP-1, and/or NF-κB activity and use thereof” (Bristol-Myers Squibb Company, priority 2008, dated 2012)
# Where two headings read alike, the source gives them in different places.
# Test system: AP-1
# Experiment: Cellular transrepression assay (AP-1 luciferase reporter in A549 cells, PMA activated)
# Type: cell-based
# Conditions: 10 ng/ml PMA; for EC50: read-out: AP-1 (EC50, nM) (measured in cellular transrepression assay); for Emax: read-out: AP-1 Max % inhibition (measured in cellular transrepression assay)
# Description: Cellular Transrepressional Assay
# To measure the ability of test molecules to inhibit AP-1 induced transcriptional activity we utilized an A549 cell which was stably transfected with a plasmid containing 7×AP-1 DNA binding sites (pAP-1-Luc plasmid, Stratagene Co. La Jolla, Calif.) followed by the gene for luciferase. Cells were activated with 10 ng/ml of phorbol myristic acid (PMA) plus or minus test molecules for 7 hours. After 7 hours a luciferase reagent was added to measure luciferase enzymatic activity in the cell. After a 10 minute incubation of luciferase reagent with cells, luminescence was measured in a TopCount luminescence counter. Repression of AP-1 activity was calculated as the percentage decrease in the signal induced by PMA alone. Test molecules were analyzed in the concentration range from 0.1 nM to 40 μM. EC50s were determined by using standard curve fitting methods such as Excel fit (Microsoft Co.). An EC50 is the test molecule concentration at which there is a 50% repression of the maximal inhibition of transcription, i.e. a 50% reduction of AP-1 activity.
EC50 (7 h),EC50 (7 hours),SMILES,Emax (7 h),AP-1 Max % inhibition (measured in cellular transrepression assay) (7 hours)
759 nM,–,CCN(C)C(=O)c1ccc(-c2ccc3c(n2)Oc2nc(C)ccc2[C@@H]3C(C)(C)C(=O)Nc2nnc(C(=O)NC)s2)cc1 [Example 46],36%,–
341 nM,–,CCNC(=O)c1nnc(NC(=O)C(C)(C)[C@H]2c3ccc(C)nc3Oc3nc(-c4ccc(C(=O)N(C)CC)cc4)ccc32)s1 [Example 48],59.4%,–
33.8 nM,–,"CN(C)C(=O)c1ccc(-c2ccc3c(n2)Oc2nc(Cl)ccc2C3C(C)(C)C(=O)Nc2nncs2)cc1 (centres unmarked) [Example 54, 4-(8-chloro-5-(1,1-dimethyl-2-oxo-2-(1,3,4-thiadiazol-2-ylamino)ethyl)-5H-pyrido[3′,2′:5,6]pyrano[2,3-b]pyridin-2-yl)-N,N-dimethylbenzamide]",59.2%,–
354 nM,–,CC(C)Sc1ccc2c(n1)Oc1nc(-c3ccc(C(=O)N(C)C)cc3)ccc1C2C(C)(C)C(=O)Nc1nncs1 (centres unmarked) [Example 55],30.5%,–
70.6 nM,–,Cc1nnc(NC(=O)C(C)(C)C2c3ccc(Cl)nc3Oc3nc(-c4ccc(C(=O)N(C)C)cc4)ccc32)s1 (centres unmarked) [Example 56],45.9%,–
68.5 nM,–,Cc1nsc(NC(=O)C(C)(C)C2c3ccc(Cl)nc3Oc3nc(-c4ccc(C(=O)N(C)C)cc4)ccc32)n1 (centres unmarked) [Example 57],31.4%,–
58.1 nM,–,"CCN(C)C(=O)c1ccc(-c2ccc3c(n2)Oc2nc(Cl)ccc2C3C(C)(C)C(=O)Nc2nnc(C)s2)cc1 (centres unmarked) [Example 58, 4-(8-chloro-5-(1,1-dimethyl-2-((5-methyl-1,3,4-thiadiazol-2-yl)amino)-2-oxoethyl)-5H-pyrido[3′,2′:5,6]pyrano[2,3-b]pyridin-2-yl)-N-ethyl-N-methylbenzamide]",57.7%,–
15.8 nM,–,CCN(C)C(=O)c1ccc(-c2ccc3c(n2)Oc2nc(Cl)ccc2C3C(C)(C)C(=O)Nc2nncs2)cc1 (centres unmarked) [Example 59],62.3%,–
47.5 nM,–,Cc1nnc(NC(=O)C(C)(C)C2c3ccc(Cl)nc3Oc3nc(-c4ccc(C(=O)N5CCOCC5)cc4)ccc32)s1 (centres unmarked) [Example 61],49.8%,–
352 nM,–,CN(C)C(=O)c1ccc(-c2ccc3c(n2)Oc2nc(Cl)ccc2C3C(C)(C)C(=O)Nc2nnc(C(=O)NC3CC3)s2)cc1 (centres unmarked) [Example 62],59.5%,–
–,87 nM,Cc1nnc(NC(=O)C(C)(C)C2c3ccc(Cl)nc3Oc3nc(-c4ccc(C(=O)N5CCOCC5)cc4)ccc32)s1 (centres unmarked) [Example 63],–,54.57%
335 nM,–,"CN(C)C(=O)c1ccc(-c2ccc3c(n2)Oc2nc(C#N)ccc2C3C(C)(C)C(=O)Nc2nncs2)cc1 (centres unmarked) [Example 66, 4-(8-cyano-5-(1,1-dimethyl-2-oxo-2-(1,3,4-thiadiazol-2-ylamino)ethyl)-5H-pyrido[3′,2′:5,6]pyrano[2,3-b]pyridin-2-yl)-N,N-dimethylbenzamide]",38.9%,–
53 nM,–,"CN(C)C(=O)c1ccc(-c2ccc3c(n2)Oc2nc(N(C)C)ccc2C3C(C)(C)C(=O)Nc2nncs2)cc1 (centres unmarked) [Example 67, 4-(8-(dimethylamino)-5-(1,1-dimethyl-2-oxo-2-(1,3,4-thiadiazol-2-ylamino)ethyl)-5H-pyrido[3′,2′:5,6]pyrano[2,3-b]pyridin-2-yl)-N,N-dimethylbenzamide]",57.9%,–
95.3 nM,–,"Cc1nnc(NC(=O)C(C)(C)C2c3ccc(-c4ccc(C(=O)N(C)C)cc4)nc3Oc3nc(N(C)C)ccc32)s1 (centres unmarked) [Example 68, 4-(8-(dimethylamino)-5-(1,1-dimethyl-2-((5-methyl-1,3,4-thiadiazol-2-yl)amino)-2-oxoethyl)-5H-pyrido[3′,2′:5,6]pyrano[2,3-b]pyridin-2-yl)-N,N-dimethylbenzamide]",46.3%,–
67.2 nM,–,CCN(C)C(=O)c1ccc(-c2ccc3c(n2)Oc2nc(N(C)C)ccc2C3C(C)(C)C(=O)Nc2nnc(C)s2)cc1 (centres unmarked) [Example 71],48.6%,–
790 nM,–,Cc1ccc2c(n1)Oc1nc(-c3ccc(C(=O)N(C)C)cc3)ccc1[C@H]2C(C)(C)C(=O)Nc1nnn(C)n1 [Example 94],35.9%,–

# More lines, now with the values behind:
SMILES,EC50 (7 h),EC50 (7 hours),Emax (7 h),AP-1 Max % inhibition (measured in cellular transrepression assay) (7 hours)
CCN(C)C(=O)c1ccc(-c2ccc3c(n2)Oc2nc(C)ccc2[C@@H]3C(C)(C)C(=O)Nc2nnc(C(=O)NC3CC3)s2)cc1 [Example 44],589 nM,–,60.8%,–
CCN(C)C(=O)c1ccc(-c2ccc3c(n2)Oc2nc(C)ccc2[C@@H]3C(C)(C)C(=O)Nc2nnc(C(=O)NC3CCC3)s2)cc1 [Example 49],98 nM,–,66.3%,–
CCN(C)C(=O)c1ccc(-c2ccc3c(n2)Oc2nc(C)ccc2[C@@H]3C(C)(C)C(=O)Nc2nnc(C(=O)N3CCOCC3)s2)cc1 [Example 50],908 nM,–,35.4%,–
CC(C)(C(=O)Nc1nncs1)C1c2ccc(Cl)nc2Oc2nc(-c3ccc(C(=O)N4CCOCC4)cc3)ccc21 (centres unmarked) [Example 60],10.7 nM,–,57.5%,–
CN(C)c1ccc2c(n1)Oc1nc(-c3ccc(C(=O)N4CCOCC4)cc3)ccc1C2C(C)(C)C(=O)Nc1nncs1 (centres unmarked) [Example 72],18 nM,–,48.7%,–
"CN(C)C(=O)c1ccc(-c2ccc3c(n2)Oc2nc(N(C)C)ccc2C3C(C)(C)C(=O)Nc2nncs2)cc1F (centres unmarked) [Example 73, 4-(8-(dimethylamino)-5-(1,1-dimethyl-2-oxo-2-(1,3,4-thiadiazol-2-ylamino)ethyl)-5H-pyrido[3′,2′:5,6]pyrano[2,3-b]pyridin-2-yl)-2-fluoro-N,N-dimethylbenzamide]",194 nM,–,43.4%,–
CCC(=O)c1ccc(-c2ccc3c(n2)Oc2nc(C)ccc2[C@@H]3C(C)(C)C(=O)Nc2nncs2)cc1 [Example 76],119 nM,–,48.5%,–
CCN(C)C(=O)c1ccc(-c2ccc3c(n2)Oc2nc(C)ccc2[C@@H]3C(C)(C)C(=O)Nc2nnc(C(=O)NC(C)C)s2)cc1 [Example 86],183 nM,–,61.6%,–
CCN(C)C(=O)c1ccc(-c2ccc3c(n2)Oc2nc(C)ccc2[C@@H]3C(C)(C)C(=O)Nc2nnc(C(=O)NCC(F)(F)F)s2)cc1 [Example 87],574 nM,–,51.7%,–
"Cc1ccc2c(n1)Oc1nc(-c3ccc(C(=O)N4CCOCC4)cc3)ccc1[C@H]2C(C)(C)C(=O)Nc1nnc(C(=O)NC2CCOCC2)s1 [Example 88, 5-((2-methyl-2-((5S)-2-methyl-8-(4-(4-morpholinylcarbonyl)phenyl)-5H-pyrano[2,3-b:6,5-b′]dipyridin-5-yl)propanoyl)amino)-N-(tetrahydro-2H-pyran-4-yl)-1,3,4-thiadiazole-2-carboxamide]",56.9 nM,–,32.9%,–
Cc1ccc2c(n1)Oc1nc(-c3ccc(C(C)(C)O)cc3)ccc1[C@H]2C(C)(C)C(=O)Nc1nncs1 [Example 89],21 nM,–,46.9%,–
"Cc1ccc2c(n1)Oc1nc(-c3ccc(C(=O)N4CCOCC4)cc3)ccc1[C@H]2C(C)(C)C(=O)Nc1nnc(C2CC2)s1 [Example 93, N-(5-cyclopropyl-1,3,4-thiadiazol-2-yl)-2-methyl-2-((5 S)-2-methyl-8-(4-(4-morpholinylcarbonyl)phenyl)-5H-pyrido[3′,2′:5,6]pyrano[2,3-b]pyridin-5-yl)propanamide]",167 nM,–,44.3%,–
